Results taken from article PMC11672137, “High-Affinity Lectin Ligands Enable the Detection of Pathogenic Pseudomonas aeruginosa Biofilms: Implications for Diagnostics and Therapy” (JACS Au, 2024).

Columns and labels:
[1] = test system: P. aeruginosa PAO-infected murine lung sections; experiment: CLSM of lung sections of infected and uninfected mice; assay type: in vivo; details: after i.v. injection
Procedure: For more detailed insights into the localization of divalent LecA ligand 21 and the control Sulfo-Cyanine7, lung sections of infected and uninfected mice were prepared and analyzed by CLSM. […] Signals corresponding to 21 were localized in cellular accumulations around medium-sized blood vessels. Particle-shaped signals and signals clustered into larger dots were observed. […] Possibly, signals detected in lung sections stained with a divalent LecA imaging probe are due to complexes of membrane-bound LecA with 21. These particle-shaped complexes probably represent the divalent imaging probe 21 bound to bacterial cells. Additionally, it is possible that larger dots are attributed to accumulated bacteria in phagocytes such as neutrophils, monocytes, and dendritic cells. However, intracellular detection using the divalent LecA imaging probe 21 has not yet been analyzed and requires further experiments.
Figure 7 Confocal laser scanning microscopy analysis of P. aeruginosa PAO-infected murine lung sections using divalent LecA imaging probe 21. Sections of cryopreserved murine lungs infected with P. aeruginosa were prepared and analyzed by CLSM after intravenous injection of divalent LecA imaging probe 21 (A) or the control Sulfo-Cyanine7 free acid (B). Lung sections of uninfected animals were used as a control after i.v. injection of 21 (C) or control Sulfo-Cyanine7 free acid (D). Cell nuclei are shown in red (DAPI) and green signals correspond to 21 or Sulfo-Cyanine7 free acid, respectively. Green signals were detected only in infected lung sections after injection of divalent LecA ligand 21. Signals were located in cellular accumulations around medium-sized blood vessels. Scale bar for A and B = 100 μm and for C and D = […]. […]
Lung sections and ex vivo imaging of P. aeruginosa
Sections of 8 µm were made from the frozen lung lobes using a cryostat (Leica, Germany). The sections were mounted on adhesive slides, dried overnight at room temperature and mounted with a DAPI containing gel. Confocal imaging was performed on a Leica SP8 […]
system equipped with a super -continuum white light laser (WLL) and a multi - photon laser source (MP) through a water immersion objective (Leica HC FLUOTAR L 25x/1,0 with a motorized correction ring). Images (1024x1024 pixels) were acquired using the MP excitation of 720 nm and emission band ([…]) for detecting DAPI and the WLL at 730 nm excitation with an emission band 748 nm – 848 nm for Cyanine7 employing non-descanned or descanned HyD detectors, respectively. Further image analysis and image overlay was performed in ImageJ2 software.27 […]

LecB (PAO1) = target: T1, LecB (PAO1) (Pseudomonas aeruginosa, UniProt Q9HYN5); experiment: Direct binding assay based on fluorescence polarization, titration with LecB
T1 construct: made in house
Procedure: Averages and standard deviations were determined from at least three independent titrations of technical triplicates each.
(§1) Direct binding affinity determination of LecA and LecB imaging probes was performed with direct titration of protein and imaging probes in TBS/Ca2+ buffer. Protein dilution series was prepared in 96 well plates and 10 µL of each dilution in triplicates were mixed with 10 µL of fluorescent compound (20 nM) in 384-well microtiter plates (Greiner Bio-One, Germany, cat no 781900). The plates were centrifuged (1 min, 500 g), sealed and incubated for 2 h in dark wet chamber under gentle shaking. Fluorescence was measured on a PheraStar FS plate reader (BMG Labtech GmbH, Germany) with excitation filters at 485 nm and emission filters at 535 nm. The data were analysed with MARS Data Analysis Software (BMG Labtech GmbH, Germany) to calculate Kd values.

LecA = target: T2, LecA (Pseudomonas aeruginosa, UniProt Q05097); experiment: Direct binding assay based on fluorescence polarization, titration with LecA; details: negative controls
T2 construct: made in house
Procedure: The binding affinities of imaging probes 2–4 for LecA were determined using a direct binding assay based on fluorescence polarization (FP).[47]
(A, C) Monovalent LecA imaging probes 2–4 based on phenyl β-D-galactoside (1) were titrated with LecA. […] (E) Xyloside-fluorescein conjugate (8) and azido fluorescein (9) served as negative controls in titrations with LecA and LecB, respectively. Averages and standard deviations were determined from at least three independent titrations of technical triplicates each.
as §1

[2] = test system: P. aeruginosa PAO1 biofilm aggregates; experiment: In vitro biofilm staining under static conditions (CLSM); assay type: cell-based, Pseudomonas aeruginosa; details: 10 μM probe
Procedure: The ability of LecA- and LecB-targeting probes to image P. aeruginosa biofilms was evaluated in vitro. P. aeruginosa PAO1, constitutively expressing mCherry from plasmid pMP7605,[56] was cultivated in microtiter plates under shaking conditions to form biofilm aggregates, as reported previously.[43] Fluorescein-carbohydrate conjugates were added to the bacterial culture to reach a final concentration of 10 μM and biofilms were analyzed by confocal laser scanning microscopy (CLSM) under static conditions (Figures 2 and S4). […] To our surprise, the intended negative control xyloside 8 also stained the P. aeruginosa biofilms (Figures 2C and S4). In all cases, the green signal originating from the fluorescein conjugates was not homogeneously spread over the entire structure of the biofilm aggregates, but a certain heterogeneity was observed across biofilm regions as bright spots. Further, the intensity of staining varied between replicates (see the Supporting Information for individual experiments). […] Instead, only a very faint green shadow was detected for 9 indicating its suitability as a negative control. Thus, the observed biofilm staining with imaging probes 2, 3, 6, 7 and also xyloside 8 was carbohydrate dependent and while 2, 3 and 6, 7 are ligands of LecA and LecB, respectively, the molecular mechanism of xyloside 8 remains elusive.
One representative image of stained aggregates is shown. […] Scale bar = 50 μm.
P. aeruginosa PAO1 expressing the red fluorescent protein mCherry (pMP7605)23 was selected for this study. For this, P. aeruginosa PAO1 (DSM 19880, Braunschweig, Germany) was transformed with the mCherry plasmid (pMP7605).23 Bacteria were stored at -80 °C. For experimental use, bacteria were streaked on lysogeny broth (LB) agar (1% tryptone, 1% NaCl, 0,5% yeast extract, 1.3% agar) containing 60 µg/mL gentamicin (Gm) and incubated at 37 °C overnight. For liquid cultures, bacterial colonies were transferred from LB agar to 10 mL LB (1% tryptone, 1% NaCl, 0,5% yeast extract) containing 60 µg/mL Gm and incubated at 37 °C and 180 rpm overnight. For exponential growth, 10 mL of LB containing 60 µg/mL Gm were inoculated with P. aeruginosa PAO1 mCherry (pMP7605)23 using an overnight liquid culture […]
In vitro biofilm staining under static conditions
Biofilm staining experiments were performed in analogy to Wagner et al. with P. aeruginosa PAO1 pMP7605 (Figure S4).23,24 Bacterial overnight cultures were inoculated from single colonies in 5 mL LB supplemented with gentamicin (120 µg/mL) and grown at 37 °C and 180 rpm. The bacterial overnight cultures were then diluted to OD600 of 0.02 with LB and 500 µL of culture per well were transferred to 24-well plate (24CG, Art. No. 5231 or 24FC, Art. No. 3231). The biofilm was grown under shaking conditions (180 rpm) at 37 °C for 20–24 h. Biofilm aggregates were visualized using a confocal laser scanning microscope (Leica TCS Sp8 CLSM) using a 25× numerical-aperture water objective. Z-stacks (463 x 463 μm) were recorded every 2 μm for mCherry (ex.: 561 nm, red) and for fluorescein containing imaging compounds (ex.: 488 nm, green). […]
Maximum Intensity Projections (contrast range automatically adjusted by Imaris). Only one staining experiment was carried out for imaging probes 4 and S26, all other fluorescein conjugates were analyzed in at least three independent experiments.

[3] = test system: P. aeruginosa PAO (DSM 1707) lung infection; experiment: Optical in vivo imaging and ex situ organ analysis in acute P. aeruginosa airway infection model; parameters: species or system mice
Procedure: Encouraged by the high affinity of the imaging probes and their ability to stain P. aeruginosa biofilms in vitro, we further investigated the compounds in vivo using an acute P. aeruginosa airway infection model in mice. Intratracheal administration of P. aeruginosa PAO (DSM 1707) results in a local infection that is mainly restricted to the lungs. With the infection dose of 2 × 10^6 cfu/50 μL chosen here, the number of bacteria peaks at 6 h after infection before the host immune system clears the bacteria.[70]
Then, imaging probes, divalent LecA-targeting probe 21, LecB-targeting probe 22 and the control sulfo-Cy7 (free acid), were administered intravenously to the tail vein 2 h post infection. […] This accumulation in the lungs was then confirmed by a subsequent ex vivo analysis of the organs.
Figure 6 Optical in vivo imaging in mice and ex situ analysis of organs with P. aeruginosa PAO acute lung infection. In vivo imaging of mice with P. aeruginosa intratracheal infection (right) or uninfected control mice (left) after intravenous administration of imaging probes 2 h post infection: (A) 50 nmol/20 g divalent LecA probe 21 or (B) 100 nmol/20 g LecB probe 22. Then, explanted lungs were analyzed for fluorescence intensity, shown as a false color scale in (C) divalent LecA probe 21 (left: uninfected, right: infected) and (D) LecB probe 22 (left: uninfected; middle: uninfected control without dye; right: infected). (E) Quantification of the average radiant efficiency of the divalent LecA ligand 21 and the control sulfo-Cy7 free acid in the lungs of uninfected and infected mice. Duplicate data points and the mean are depicted. (F) Average radiant efficiency was quantified for the LecB imaging probe 22 in lungs of infected and uninfected mice. In addition, (G) further mouse organs were explanted after i.v. injection of 21 (50 nmol/20 g) or control sulfo-Cy7 free acid (50 nmol/20 g) and imaged. Organs of uninfected (left), infected (right) mice, and uninfected mice without any dye (upper middle on the sulfo-Cy7 free acid rows) were compared. Fluorescence intensities are shown as false color pictures. […]
Lung infection model and in vivo imaging of P. aeruginosa
C57BL/6J and albino (Tyrc2J) C57BL/6 mice were bred and housed at the Central Animal Facility, Hannover Medical School, Germany. Animal experiments were performed with permission number: 33.9-42502-04-16/2072 from the Lower Saxony State Office for Consumer Protection and Food Safety (LAVES), Germany. Mice were anesthetized with 3% isoflurane (CP Pharma) and infected intratracheally with 2x10^6 cfu/50 µL of P. aeruginosa PAO (DSM1707, Braunschweig, Germany) as described previously.26
50 – 100 nmol sulfo-Cyanine7-compound (divalent LecA probe 21; LecB probe 22; control sulfoCy7 free acid, CAS no.: 2104632-30-4, Lumiprobe; control sulfoCy7 azide, 20, Lumiprobe) per 20 g mouse was injected intravenously 2 h after infection. Optical imaging was performed 4 – 7 h after compound administration. Mice were anesthetized with 3% isoflurane […]
an in vivo imaging system (IVIS SpectrumCT, PerkinElmer). Subsequently mice were euthanized and organs were imaged (675/760 nm) ex situ individually. To enhance Cyanine7 specific fluorescent signal spectral unmixing was performed on in vivo images using LivingImage 4.7 (PerkinElmer). […]

T1 sequence (Q9HYN5 entry or part of it): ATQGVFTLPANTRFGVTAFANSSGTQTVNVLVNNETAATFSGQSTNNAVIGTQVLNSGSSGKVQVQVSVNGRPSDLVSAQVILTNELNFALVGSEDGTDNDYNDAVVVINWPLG
T2 sequence (Q05097 whole entry): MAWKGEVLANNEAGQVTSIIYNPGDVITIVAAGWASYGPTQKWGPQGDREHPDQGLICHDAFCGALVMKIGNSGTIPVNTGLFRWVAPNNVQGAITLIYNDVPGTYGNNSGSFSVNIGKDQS

Row | SMILES | Cyanine7 signals in lung sections, infected mice [1] | Cyanine7 signals in lung sections, uninfected mice [1] | Staining of biofilm aggregates [2] | Kd (LecB (PAO1)) [nM] | further results
1 | C[N+]1=C(C=CC2=CC(=CC=C3N(CCCCCC(=O)O)c4ccc(S(=O)(=O)[O-])cc4C3(C)C)CCC2)C(C)(C)c2cc(S(=O)(=O)[O-])ccc21.[Na+] [Sulfo-Cyanine7, reference compound] | no signals were detected | no signals were detected |  |  | 
2 | O=C1OC2(c3ccc(O)cc3Oc3cc(O)ccc32)c2ccc(NC(=S)NCCOCCOCCOCCn3cc(CNc4ccc(S[C@@H]5OC[C@@H](O)[C@H](O)[C@H]5O)cc4)nn3)cc21 [compound 8] |  |  | also stained |  | Binding to LecB in direct FP titration (LecB (PAO1); negative control): inability to bind; Binding to LecA in direct FP titration (LecA): inability to bind
3 | C[C@@H]1O[C@H](CNS(=O)(=O)c2ccc(-c3cn(CCOCCOCCOCCNC(=S)Nc4ccc5c(c4)C(=O)OC54c5ccc(O)cc5Oc5cc(O)ccc54)nn3)s2)[C@@H](O)[C@H](O)[C@@H]1O [compound 6] |  |  | accumulated at the biofilm aggregates, although with weaker staining | 1650 ± 140 | 
4 | CN1/C(=C/C=C2C=C(/C=C/C3=[N+](CCCCCC(=O)NCCCn4cc(CCN(Cc5ccc(NC(=O)CCc6ccc(O[C@@H]7O[C@H](CO)[C@H](O)[C@H](O)[C@H]7O)cc6)cc5)Cc5ccc(NC(=O)CCc6ccc(O[C@@H]7O[C@H](CO)[C@H](O)[C@H](O)[C@H]7O)cc6)cc5)nn4)c4ccc(S(=O)(=O)[O-])cc4C3(C)C)CCC/2)C(C)(C)c2cc(S(=O)(=O)O)ccc21 [compound 21] | Cyanine7 signals were exemplarily visible | no signals were detected |  |  | Average fluorescence radiant efficiency of explanted lungs ([3]; ex vivo analysis of organs, infected vs uninfected mice): elevated compared with uninfected mice; Cyanine7 signal in lung area, optical in vivo imaging ([3]; i.v. 2 h post infection, infected vs uninfected mice, 21 50 nmol/20 g, 22 100 nmol/20 g): elevated Cyanine7 signals in the area of the lung of infected mice compared to uninfected mice; Fluorescence ex vivo in kidneys ([3]; infected vs uninfected animals): moderately increased signals compared to uninfected animals; Fluorescence ex vivo in lungs of uninfected animals compared to control sulfo-Cyanine7 (free acid) ([3]; uninfected mice, ex vivo quantification): a certain accumulation in the lungs of uninfected animals
5 | C[C@@H]1O[C@H](CNS(=O)(=O)c2ccc(OCc3cn(CCOCCOCCOCCNC(=S)Nc4ccc5c(c4)C(=O)OC54c5ccc(O)cc5Oc5cc(O)ccc54)nn3)cc2)[C@@H](O)[C@H](O)[C@@H]1O [compound 7] |  |  | accumulated at the biofilm aggregates, although with weaker staining | 840 ± 110 | 
